Test results: paper PMC7179119, “A New Positron Emission Tomography Probe for Orexin Receptors Neuroimaging” (Molecules, 2020)
Where two headings read alike, the source gives them in different places.

What was measured:
[1] = biological target: T1, Human recombinant OX2 receptors (Homo sapiens, UniProt O43614); assay: Human Orexin GPCR Binding (Agonist Radioligand) Assay, [125I] Orexin A competition
T1 sequence (O43614 1-444): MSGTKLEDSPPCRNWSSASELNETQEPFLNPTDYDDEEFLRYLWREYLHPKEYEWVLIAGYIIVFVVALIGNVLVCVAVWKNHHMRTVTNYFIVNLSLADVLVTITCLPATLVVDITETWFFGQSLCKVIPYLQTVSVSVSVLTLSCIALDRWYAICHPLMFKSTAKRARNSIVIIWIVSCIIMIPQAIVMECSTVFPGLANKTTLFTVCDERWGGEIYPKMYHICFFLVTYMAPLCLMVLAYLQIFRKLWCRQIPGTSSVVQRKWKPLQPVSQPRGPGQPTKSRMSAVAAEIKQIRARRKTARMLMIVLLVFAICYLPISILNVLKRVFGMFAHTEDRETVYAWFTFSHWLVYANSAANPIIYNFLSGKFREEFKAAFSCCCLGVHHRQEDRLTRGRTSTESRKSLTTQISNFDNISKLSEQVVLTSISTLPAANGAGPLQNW
Method: (§1) Radioligand competition binding assays were performed by Panlabs, Eurofins Pharma Discovery Services. Briefly, human recombinant orexin OX1 receptors expressed in CHO-S cells were used in modified HEPES buffer pH 7.4. […] Orexin A for 60 minutes at 25 °C. […] Orexin A specifically binding. Human recombinant OX2 receptors were used in modified HEPES buffer pH 7.4. […] Orexin A for 180 minutes at 25 °C. […] Orexin A specifically bound.

[2] = biological target: T2, human recombinant orexin OX1 receptors (Homo sapiens, UniProt O43613); assay: as above
T2 construct: host or cells: CHO-S cells
T2 sequence (O43613 1-425): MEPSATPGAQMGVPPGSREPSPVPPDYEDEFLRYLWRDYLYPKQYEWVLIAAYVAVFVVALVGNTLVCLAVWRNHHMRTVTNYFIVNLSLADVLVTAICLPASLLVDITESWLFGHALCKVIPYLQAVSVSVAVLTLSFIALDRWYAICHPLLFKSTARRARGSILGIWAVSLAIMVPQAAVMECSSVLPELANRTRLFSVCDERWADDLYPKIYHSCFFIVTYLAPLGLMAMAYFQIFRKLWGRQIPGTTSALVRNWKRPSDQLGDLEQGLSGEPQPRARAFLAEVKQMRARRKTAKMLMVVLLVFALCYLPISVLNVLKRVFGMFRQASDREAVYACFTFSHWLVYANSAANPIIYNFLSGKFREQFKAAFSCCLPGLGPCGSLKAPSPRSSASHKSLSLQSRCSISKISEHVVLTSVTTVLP
Method: as §1

[3] = Assessment of Lipophilicity (Log D; pH 7.4); type: physicochemical
Method: Log D was determined according to methods identical to those we previously reported.

5-HT1E = biological target: T3, 5-HT1E (Homo sapiens, UniProt P28566); assay: PDSP off-target radioligand binding assay
T3 construct: NIMH PDSP
T3 sequence (P28566 whole entry, species assumed): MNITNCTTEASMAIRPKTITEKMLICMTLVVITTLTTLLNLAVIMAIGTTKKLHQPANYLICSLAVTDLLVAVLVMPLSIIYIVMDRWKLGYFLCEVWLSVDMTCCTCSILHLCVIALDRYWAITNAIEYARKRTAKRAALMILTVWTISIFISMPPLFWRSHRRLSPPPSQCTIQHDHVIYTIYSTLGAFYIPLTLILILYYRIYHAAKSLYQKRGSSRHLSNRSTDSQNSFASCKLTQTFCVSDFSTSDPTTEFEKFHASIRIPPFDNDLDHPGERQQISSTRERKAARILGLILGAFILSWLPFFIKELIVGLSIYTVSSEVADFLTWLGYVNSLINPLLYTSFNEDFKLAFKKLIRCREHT
Method: (§2) Table S1. Off binding data of CW24.
(§3) The off-target binding assays were performed at PDSP with their standard protocol (https://pdspdb.unc.edu/pdspWeb/content/UNC-CH%20Protocol%20Book.pdf). In radioligand binding assays, CW24 was tested at a single concentration (10 µM) and in quadruplicate in 96-well plates. The binding assays were carried out in a final of volume of 125 µl per well in appropriate binding buffers. The hot ligand concentration is usually at a concentration close to the Kd (unless otherwise indicated). Total binding and nonspecific binding are determined in the absence and presence of 10 µM of the appropriate reference compound, respectively. In brief, plates are usually incubated at room temperature and in the dark for 90 mins. Reactions are stopped by vacuum filtration onto 0.3% polyethyleneimine (PEI) soaked 96-well filter mats using a 96-well Filtermate harvester, followed by three washes with cold wash buffers (for details, see Tables 2 to 24). Scintillation cocktail is then melted onto the microwave-dried filters on a hot plate and radioactivity is counted in a Microbeta counter.
(§4) Receptor % Inhibition 1 % Inhibition 2 % Inhibition 3 % Inhibition 4 Mean±SD %

5-HT6 = biological target: T4, 5-HT6 (Homo sapiens, UniProt P50406); assay: PDSP off-target radioligand binding assay
T4 construct: NIMH PDSP
T4 sequence (P50406 whole entry, species assumed): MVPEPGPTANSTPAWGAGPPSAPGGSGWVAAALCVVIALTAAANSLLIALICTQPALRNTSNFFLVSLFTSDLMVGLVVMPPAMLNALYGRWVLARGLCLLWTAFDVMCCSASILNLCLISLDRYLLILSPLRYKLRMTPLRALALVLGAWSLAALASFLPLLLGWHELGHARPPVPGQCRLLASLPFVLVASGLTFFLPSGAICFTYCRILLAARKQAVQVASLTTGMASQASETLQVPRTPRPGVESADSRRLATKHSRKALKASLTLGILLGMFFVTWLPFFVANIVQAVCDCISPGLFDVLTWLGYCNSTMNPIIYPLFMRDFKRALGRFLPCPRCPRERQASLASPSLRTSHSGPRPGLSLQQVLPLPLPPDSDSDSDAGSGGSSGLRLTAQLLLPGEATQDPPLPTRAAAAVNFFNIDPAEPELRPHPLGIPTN
Method: as §2, §3, §4

D1 = biological target: T5, D1 (Homo sapiens, UniProt P21728); assay: PDSP off-target radioligand binding assay
T5 construct: NIMH PDSP
T5 sequence (P21728 whole entry): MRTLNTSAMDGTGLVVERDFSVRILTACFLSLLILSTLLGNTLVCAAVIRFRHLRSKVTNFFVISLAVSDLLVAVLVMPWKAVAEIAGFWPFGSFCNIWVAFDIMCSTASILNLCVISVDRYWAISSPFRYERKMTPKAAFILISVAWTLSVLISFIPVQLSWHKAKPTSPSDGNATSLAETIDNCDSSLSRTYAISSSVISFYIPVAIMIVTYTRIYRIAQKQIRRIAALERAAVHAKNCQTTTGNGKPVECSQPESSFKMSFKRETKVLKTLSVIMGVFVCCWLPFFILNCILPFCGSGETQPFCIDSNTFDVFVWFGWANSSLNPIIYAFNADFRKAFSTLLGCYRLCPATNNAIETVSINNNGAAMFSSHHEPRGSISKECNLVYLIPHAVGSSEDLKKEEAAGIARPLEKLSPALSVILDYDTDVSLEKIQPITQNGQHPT
Method: as §2, §3, §4

D3 = biological target: T6, D3 (Homo sapiens, UniProt P35462); assay: PDSP off-target radioligand binding assay
T6 construct: NIMH PDSP
T6 sequence (P35462 whole entry): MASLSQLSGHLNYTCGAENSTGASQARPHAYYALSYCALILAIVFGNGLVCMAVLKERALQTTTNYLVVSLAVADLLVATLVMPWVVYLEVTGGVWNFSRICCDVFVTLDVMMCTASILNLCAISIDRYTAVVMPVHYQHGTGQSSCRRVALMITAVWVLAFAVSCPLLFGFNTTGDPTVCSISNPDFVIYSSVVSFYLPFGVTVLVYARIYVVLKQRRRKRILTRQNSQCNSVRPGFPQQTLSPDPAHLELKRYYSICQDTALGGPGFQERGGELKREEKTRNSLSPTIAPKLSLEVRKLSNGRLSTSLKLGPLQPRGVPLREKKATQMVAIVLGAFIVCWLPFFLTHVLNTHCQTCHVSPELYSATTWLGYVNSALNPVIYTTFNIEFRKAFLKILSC
Method: as §2, §3, §4

GABAA = assay: PDSP off-target radioligand binding assay; conditions: 10 µM
Method: as §2, §3, §4

H1 = H1 (Homo sapiens, UniProt P35367); assay: PDSP off-target radioligand binding assay
Chain of H1 (P35367 whole entry): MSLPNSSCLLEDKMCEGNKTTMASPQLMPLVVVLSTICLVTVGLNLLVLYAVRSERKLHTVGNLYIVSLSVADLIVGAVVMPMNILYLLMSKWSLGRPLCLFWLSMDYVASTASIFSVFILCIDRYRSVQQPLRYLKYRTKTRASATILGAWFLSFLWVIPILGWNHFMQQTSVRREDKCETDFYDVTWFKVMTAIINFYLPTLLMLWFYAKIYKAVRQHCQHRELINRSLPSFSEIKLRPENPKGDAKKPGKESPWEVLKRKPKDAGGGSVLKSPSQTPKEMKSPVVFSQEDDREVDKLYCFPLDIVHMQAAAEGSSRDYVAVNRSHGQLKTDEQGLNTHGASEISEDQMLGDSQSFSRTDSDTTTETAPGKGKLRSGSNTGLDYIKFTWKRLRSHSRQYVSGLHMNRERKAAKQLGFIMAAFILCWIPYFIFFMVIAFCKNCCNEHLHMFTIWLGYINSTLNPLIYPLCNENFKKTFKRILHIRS
Method: as §2, §3, §4

M2 = biological target: T7, M2 (Homo sapiens, UniProt P08172); assay: PDSP off-target radioligand binding assay
T7 sequence (P08172 1-466): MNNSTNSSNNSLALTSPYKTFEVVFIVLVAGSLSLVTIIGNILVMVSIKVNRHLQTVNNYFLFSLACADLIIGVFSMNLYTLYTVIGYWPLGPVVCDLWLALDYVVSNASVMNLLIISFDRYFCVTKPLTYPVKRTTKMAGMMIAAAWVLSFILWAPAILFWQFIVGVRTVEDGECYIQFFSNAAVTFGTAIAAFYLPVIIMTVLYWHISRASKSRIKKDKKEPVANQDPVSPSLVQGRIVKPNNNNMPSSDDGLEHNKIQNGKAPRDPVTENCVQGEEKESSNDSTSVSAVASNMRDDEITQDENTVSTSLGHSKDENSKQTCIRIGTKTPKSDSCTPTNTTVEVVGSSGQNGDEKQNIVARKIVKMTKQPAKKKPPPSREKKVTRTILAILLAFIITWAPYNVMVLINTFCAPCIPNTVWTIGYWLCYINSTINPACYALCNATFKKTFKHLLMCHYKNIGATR
Method: as §2, §3, §4

[4] = quadruplicate, read-out: Mean±SD % inhibition
[5] = replicate 1, read-out: % Inhibition 1
[6] = replicate 2, read-out: % Inhibition 2
[7] = replicate 3, read-out: % Inhibition 3
[8] = replicate 4, read-out: % Inhibition 4

With `COc1ccnc(N2CCC3(CCCN(Cc4cn(C)c5ccccc45)C3=O)CC2)n1` [CW24] the “increase in potency compared to IPSU binding (OX2R)” value ([1]; CW24 vs IPSU) was ~ 2 fold, the IC50 ([1]; competition binding against [^125I] orexin, read-out: IC50 OX2R) was 1410 nM and the “increase in potency compared to IPSU binding (OX1R)” value ([2]; CW24 vs IPSU) was ~ 5 fold. For the same compound, the IC50 ([2]; competition binding against [^125I] orexin, read-out: IC50 OX1R) was 253 nM, the logD [3] was 2.3 and the inhibition at 10 µM (5-HT1E; [4]) was 18.8 ± 12.2%. The inhibition at 10 µM (5-HT1E; [5]) was 31.3%, the inhibition at 10 µM (5-HT1E; [6]) was 19.5% and the inhibition at 10 µM (5-HT1E; [7]) was 22.5%. It also gave an inhibition at 10 µM (5-HT1E; [8]) of 2.07%, an inhibition at 10 µM (5-HT6; [4]) of 5.73 ± 17.3% and an inhibition at 10 µM (5-HT6; [5]) of 17.7%. It also gave an inhibition at 10 µM (5-HT6; [6]) of 23.2%, an inhibition at 10 µM (5-HT6; [7]) of -12.3% and an inhibition at 10 µM (5-HT6; [8]) of -5.73%. The inhibition at 10 µM (D1; [4]) was 17.9 ± 12.8%, the inhibition at 10 µM (D1; [5]) was 22.7% and the inhibition at 10 µM (D1; [6]) was -0.84%. For the same compound, the inhibition at 10 µM (D1; [7]) was 21.9%, the inhibition at 10 µM (D1; [8]) was 28% and the inhibition at 10 µM (D3; [4]) was -4.9 ± 5.5%. For the same compound, the inhibition at 10 µM (D3; [5]) was 3.09%, the inhibition at 10 µM (D3; [6]) was -9.41% and the inhibition at 10 µM (D3; [7]) was -6.79%. For the same compound, the inhibition at 10 µM (D3; [8]) was -6.5%, the “Mean±SD % inhibition” value (GABAA; quadruplicate) was 11.56 ± 11.5% and the “% Inhibition 1” value (GABAA; replicate 1) was 24.87%. The “% Inhibition 2” value (GABAA; replicate 2) was 0.04%, the “% Inhibition 3” value (GABAA; replicate 3) was 4% and the “% Inhibition 4” value (GABAA; replicate 4) was 17.31%. The inhibition at 10 µM (H1; [4]) was 10.5 ± 12.7%, the inhibition at 10 µM (H1; [5]) was 13% and the inhibition at 10 µM (H1; [6]) was -0.52%. For the same compound, the inhibition at 10 µM (H1; [7]) was 1.94%, the inhibition at 10 µM (H1; [8]) was 27.5% and the inhibition at 10 µM (M2; [4]) was -0.08 ± 16.7%. For the same compound, the inhibition at 10 µM (M2; [5]) was -1.12%, the inhibition at 10 µM (M2; [6]) was -4.61% and the inhibition at 10 µM (M2; [7]) was -17.4%. It also gave an inhibition at 10 µM (M2; [8]) of 22.8%.
